{
  "source": "patent US8802705B2",
  "about": "“Pharmaceutical containing PPAR delta agonist” (Senju Pharmaceutical Co., Ltd., priority 2007, dated 2014)",
  "system": "corneal epithelial defect",
  "test": "Promoting action on corneal epithelial wound healing after corneal epithelial scraping (Experimental Example 2)",
  "assay_type": "in vivo, Japanese white rabbits",
  "details": "rabbit; for ratio of the remaining corneal epithelial defect: mean ± SD, N = 6",
  "experimental": "Male Japanese white rabbits (KITAYAMA LABES Co., Ltd.) were used. The experimental animals were used according to the International Guiding Principles for Biomedical Research involving Animals.\nCompound A was used as a test substance. Compound A was dissolved in the following vehicle at 0.0005% or suspended in the following vehicle at 0.005% and used as an instillation.\nAs a control for the compound A administration group, the above-mentioned vehicle instillation group free of medicament was used.\nAnimals received intramuscular injection (1 mL/kg) of a Selactal (2% xylazine; Bayer, Ltd.): Ketalar (5% ketamine; DAIICHI SANKYO COMPANY, LIMITED)=1:1 mixture for systemic anesthesia, and oxybuprocaine hydrochloride instillation (Benoxil instillation 0.4%; Santen Pharmaceutical CO., Ltd.) and then the eyeballs were exposed. Using a trephine with a diameter of 10 mm, a mark (diameter 10 mm) was stamped on the corneal epithelium in the central part of the cornea, and the entire corneal epithelial layer within the marked circle was scraped off with a handy rooter under a stereomicroscope. After scraping, the corneal surface was washed with physiological saline (OTSUKA PHARMACEUTICAL FACTORY, INC.), and the corneal epithelial scraping treatment was completed by placing the eyeball back in the orbitae.\nCompound A instillation or an instillation vehicle was instilled by 50 μL each time into the treated eye with a micropipette twice a day on the day of corneal epithelial scraping and four times a day from the next day to the completion of the test.\nUsing the time point when the corneal epithelial scraping was completed in all animals as a test starting time (0 hr), the area of corneal epithelium defect was quantified 40, 48, 56 and 64 hr later, based on which wound healing of the corneal epithelium was evaluated. To be precise, 0.1% fluorescein sodium (Wako Pure Chemical Industries, Ltd.) solution (10 μL) was instilled into the treated eye at each time point, and the anterior ocular segment of the animals was immediately photographed using a slit lamp with a blue filter, whereby the fluorescein-stained corneal epithelial deficient region was recorded. The developed photograph was stored as digital images on a computer, and the area of the fluorescein-stained corneal epithelial defect was measured using an image analysis software (Image-Pro Plus).\nThe area of the fluorescein-stained corneal epithelial defect measured at each time point was calculated based on the initial value of each animal as 100%, and taken as the ratio of the remaining corneal epithelial defect. The ratio of the remaining corneal epithelial defect at each time point was compared between the vehicle instillation group and compound A instillation group using the t-test. A critical value of less than 5% as a result of the test was judged as significant.",
  "data": [
    {"molecule": "Cc1cc2c(CCc3sc(-c4ccc(C(F)(F)F)cc4)nc3C(C)C)noc2cc1OCC(=O)O", "note": "[compound A, [3-[2-[4-isopropyl-2-(4-trifluoromethyl)phenyl-5-thiazolyl]ethyl]-5-methyl-1,2-benzisoxazol-6-yl]oxyacetic acid]", "values": [
      {"measurement": "ratio of the remaining corneal epithelial defect", "setting": "0.0005% instillation, 0 hr (initial value)", "result": "100.0 ± 0.0", "unit": "%"},
      {"measurement": "ratio of the remaining corneal epithelial defect", "setting": "0.0005% instillation, 40 hr later, initial value = 100%", "result": "24.8 ± 2.7", "unit": "%"},
      {"measurement": "ratio of the remaining corneal epithelial defect", "setting": "0.0005% instillation, 48 hr later, initial value = 100%", "result": "11.8 ± 2.9", "unit": "%"},
      {"measurement": "ratio of the remaining corneal epithelial defect", "setting": "0.0005% instillation, 56 hr later, initial value = 100%", "result": "3.8 ± 2.8", "unit": "%"},
      {"measurement": "ratio of the remaining corneal epithelial defect", "setting": "0.0005% instillation, 64 hr later, initial value = 100%", "result": "0.8 ± 1.4", "unit": "%"},
      {"measurement": "ratio of the remaining corneal epithelial defect", "setting": "0.005% instillation, 0 hr (initial value)", "result": "100.0 ± 0.0", "unit": "%"},
      {"measurement": "ratio of the remaining corneal epithelial defect", "setting": "0.005% instillation, 40 hr later, initial value = 100%", "result": "18.6 ± 8.0", "unit": "%"},
      {"measurement": "ratio of the remaining corneal epithelial defect", "setting": "0.005% instillation, 48 hr later, initial value = 100%", "result": "9.1 ± 6.4", "unit": "%"},
      {"measurement": "ratio of the remaining corneal epithelial defect", "setting": "0.005% instillation, 56 hr later, initial value = 100%", "result": "3.4 ± 3.7", "unit": "%"},
      {"measurement": "ratio of the remaining corneal epithelial defect", "setting": "0.005% instillation, 64 hr later, initial value = 100%", "result": "0.9 ± 1.3", "unit": "%"},
      {"measurement": "effect on wound healing of corneal epithelial defect (in words)", "setting": "instillation 0.0005% or 0.005%, conclusion of the test", "result": "promotes wound healing of corneal epithelial defect"}
    ]}
  ]
}
